What follows are molecules tested against wild type RET (Homo sapiens (Human), UniProt P07949) (assay: RET Wild Type Assay at KM (Caliper electrophoretic mobility shift)). Conditions: 25 μM ATP, 25° C., 120 minutes; read-out: Wild-type RET (RET Inhibitory Activity).
Assay type: biochemical

Sequence of wild type RET (P07949 29-1114): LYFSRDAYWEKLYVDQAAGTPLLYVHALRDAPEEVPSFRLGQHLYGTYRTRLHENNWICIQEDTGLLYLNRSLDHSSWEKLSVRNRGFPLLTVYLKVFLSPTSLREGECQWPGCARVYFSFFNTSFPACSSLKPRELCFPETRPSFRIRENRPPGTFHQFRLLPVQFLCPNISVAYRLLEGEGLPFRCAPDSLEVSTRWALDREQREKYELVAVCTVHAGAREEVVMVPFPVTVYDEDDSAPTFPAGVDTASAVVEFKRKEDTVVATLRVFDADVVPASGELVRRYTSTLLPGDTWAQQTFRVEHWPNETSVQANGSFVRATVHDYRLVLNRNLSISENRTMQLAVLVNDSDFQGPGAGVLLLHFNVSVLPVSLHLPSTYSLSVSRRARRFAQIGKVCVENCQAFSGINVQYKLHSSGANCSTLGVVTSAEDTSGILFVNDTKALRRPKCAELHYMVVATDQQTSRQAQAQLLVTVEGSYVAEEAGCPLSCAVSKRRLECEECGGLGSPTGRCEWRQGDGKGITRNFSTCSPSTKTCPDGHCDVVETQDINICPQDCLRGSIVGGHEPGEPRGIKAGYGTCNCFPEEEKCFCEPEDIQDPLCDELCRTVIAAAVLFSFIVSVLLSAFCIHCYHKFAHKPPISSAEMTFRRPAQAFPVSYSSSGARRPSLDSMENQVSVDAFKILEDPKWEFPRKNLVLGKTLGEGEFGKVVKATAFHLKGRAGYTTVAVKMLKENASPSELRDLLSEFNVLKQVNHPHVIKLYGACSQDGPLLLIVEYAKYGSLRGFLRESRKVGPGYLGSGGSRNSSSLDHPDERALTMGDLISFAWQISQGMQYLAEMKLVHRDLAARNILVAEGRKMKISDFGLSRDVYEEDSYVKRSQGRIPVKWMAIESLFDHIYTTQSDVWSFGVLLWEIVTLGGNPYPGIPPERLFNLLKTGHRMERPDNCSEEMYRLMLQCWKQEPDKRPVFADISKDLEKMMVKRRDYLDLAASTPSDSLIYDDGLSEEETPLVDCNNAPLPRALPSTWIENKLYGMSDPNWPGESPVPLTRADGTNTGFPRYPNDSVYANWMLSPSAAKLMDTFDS

SMILES | IC50 [nM]
Cc1cc(Nc2cc(C)[nH]n2)nc([C@H]2C[C@H](C(=O)N[C@@H](C)c3ccc(-n4cc(F)cn4)nc3)C2)c1 [Compound 102] | < 1
Cc1cc(Nc2cc(C)[nH]n2)nc([C@H]2C[C@H](C(=O)N[C@H](C)c3cnc(-n4cc(F)cn4)cn3)C2)c1 [Compound 104] | < 1
Cc1cc(Nc2cc(C)[nH]n2)nc([C@H]2C[C@@](C)(C(=O)N[C@@H](C)c3ccc(-n4cc(F)cn4)nc3)C2)n1 [Compound 107, (1S,3R)—N—((S)-1-(6-(4-fluoro-1H-pyrazol-1-yl)pyridin-3-yl)ethyl)-1-methyl-3-(4-methyl-6-((5-methyl-1H-pyrazol-3-yl)amino)pyrimidin-2-yl)cyclobutane-1-carboxamide] | 1.01 to 10
Cc1cc(Nc2cc(C)[nH]n2)nc([C@]2(O)C[C@](C)(C(=O)N[C@@H](C)c3ccc(-n4cc(F)cn4)nc3)C2)c1 [Compound 118] | < 100
Cc1cc(Nc2cc(C)[nH]n2)nc([C@]2(O)C[C@@H](C(=O)N(C)[C@@H](C)c3ccc(-n4cc(F)cn4)nc3)C2)c1 [Compound 116] | 1.01 to 10
Cc1cc(Nc2cc(C)[nH]n2)nc([C@]2(O)C[C@@](C)(C(=O)N[C@@H](C)c3ccc(-n4cc(F)cn4)nc3)C2)c1 [Compound 119] | < 1
CO[C@]1(C(=O)N[C@@H](C)c2ccc(-n3cc(F)cn3)nc2)C[C@](O)(c2cc(C)cc(Nc3cc(C)[nH]n3)n2)C1 [Compound 127] | < 1
CO[C@]1(C(=O)N[C@@H](C)c2ccc(-n3cc(F)cn3)nc2)C[C@@](O)(c2cc(C)cc(Nc3cc(C)[nH]n3)n2)C1 [Compound 128] | < 100
CO[C@]1(C(=O)N[C@@H](C)c2cnc(-n3cc(F)cn3)cn2)C[C@H](c2cc(C)nc(Nc3cc(C)[nH]n3)n2)C1 [Compound 124] | < 1
Cc1cc(Nc2cc(C)[nH]n2)nc([C@H]2C[C@H](C(=O)N[C@H](C)c3ccc(-n4cccn4)nc3)C2)c1 [Compound 101] | < 1
CO[C@]1(C(=O)N[C@@H](C)c2ccc(-n3cc(F)cn3)nc2)C[C@H](c2cc(C)nc(Nc3cc(C)[nH]n3)n2)C1 [Compound 122] | < 1
Cc1cc(Nc2cc(C)[nH]n2)nc([C@]2(F)C[C@@H](C(=O)N[C@@H](C)c3ccc(-n4cc(F)cn4)nc3)C2)c1 [Compound 114] | 1.01 to 10
CO[C@]1(C(=O)N[C@@H](C)c2cnc(-n3cc(F)cn3)cn2)C[C@H](c2nc(C)cc(Nc3cc(C)[nH]n3)n2)C1 [Compound 123] | < 1
Cc1cc(Nc2cc(C)[nH]n2)nc([C@]2(F)C[C@](C)(C(=O)N[C@@H](C)c3ccc(-n4cc(F)cn4)nc3)C2)c1 [Compound 126] | < 100
Cc1cc(Nc2cc(C)[nH]n2)nc([C@H]2C[C@](C)(C(=O)N[C@@H](C)c3ccc(-n4cc(F)cn4)nc3)C2)n1 [Compound 108, (1R,3S)—N—((S)-1-(6-(4-fluoro-1H-pyrazol-1-yl)pyridin-3-yl)ethyl)-1-methyl-3-(4-methyl-6-((5-methyl-1H-pyrazol-3-yl)amino)pyrimidin-2-yl)cyclobutane-1-carboxamide] | < 1
Cc1cc(Nc2cc(C)[nH]n2)nc([C@H]2C[C@H](C(=O)NCc3ccc(-n4cccn4)nc3)C2)c1 [Compound 100] | < 1
Cc1cc(Nc2cc(C)[nH]n2)nc([C@]2(O)C[C@@H](C(=O)N[C@@H](C)c3ccc(-n4cc(F)cn4)nc3)C2)c1 [Compound 109] | < 1
CO[C@]1(c2cc(C)cc(Nc3cc(C)[nH]n3)n2)C[C@H](C(=O)N[C@@H](C)c2ccc(-n3cc(F)cn3)nc2)C1 [Compound 117, (1S,3R)—N—((S)-1-(6-(4-fluoro-1H-pyrazol-1-yl)pyridin-3-yl)ethyl)-3-methoxy-3-(4-methyl-6-((5-methyl-1H-pyrazol-3-yl)amino)pyridin-2-yl)cyclobutane-1-carboxamide] | < 100
CO[C@]1(C(=O)NCc2cnc(-n3cc(F)cn3)cn2)C[C@H](c2cc(C)nc(Nc3cc(C)[nH]n3)n2)C1 [Compound 131] | 1.01 to 10
Cc1cc(Nc2cc(C)[nH]n2)nc([C@H]2C[C@H](C(=O)N[C@@H](C)c3ccc(-n4cc(F)cn4)nc3)C2)n1 [Compound 105] | < 1
CO[C@]1(C(=O)N[C@@H](C)c2ccc(-n3cc(F)cn3)nc2)C[C@H](c2cc(C)cc(Nc3cc(C)[nH]n3)n2)C1 [Compound 120] | < 1
Cc1cc(Nc2cc(C)[nH]n2)nc([C@]2(F)C[C@H](C(=O)N[C@@H](C)c3ccc(-n4cc(F)cn4)nc3)C2)c1 [Compound 113, (1S,3R)-3-fluoro-N—((S)-1-(6-(4-fluoro-1H-pyrazol-1-yl)pyridin-3-yl)ethyl)-3-(4-methyl-6-(5-methyl-1H-pyrazol-3-ylamino)pyridin-2-yl)cyclobutanecarboxamide] | 10 to 100
Cc1cc(Nc2cc(C)[nH]n2)nc([C@H]2C[C@@H](C(=O)N[C@@H](C)c3ccc(-n4cc(F)cn4)nc3)C2)c1 [Compound 103] | 10 to 100
CO[C@]1(C(=O)N[C@@H](C)c2ccc(-n3cc(F)cn3)nc2)C[C@H](c2nc(C)cc(Nc3cc(C)[nH]n3)n2)C1 [Compound 121] | < 1
Cc1cc(Nc2cc(C)[nH]n2)nc([C@H]2C[C@](C)(C(=O)N[C@@H](C)c3cnc(-n4cc(F)cn4)cn3)C2)n1 [Compound 110] | < 1

From US10183928B2, “Inhibitors of RET” (BLUEPRINT MEDICINES CORPORATION, priority 2016, dated 2019)
